Here are results for three compounds from patent US6039963A, “Ceramide compounds, process for their preparation and use” (L'Oreal, priority 1995, dated 2000).

Assay [1] in a line: imperceptible water loss (IWL), evaporimeter (Servomed) on delipidized stratum corneum. The text has this: This measurement is made using an evaporimeter (Servomed) which quantitatively determines water evaporation, that is to say diffusional water transport, from a sample of previously delipidized stratum corneum which forms a stopper in a cylindrical capsule containing water, the entire assembly being placed in a chamber at controlled temperature and relative humidity.
Sensors allow the partial vapor pressure of water to be measured at two points located at different distances from the sample.
The partial vapor pressure of water is thus determined between the two points, and thus the rate of evaporation in accordance with Fick's law.
A comparative test was performed of the effects on the IWL of a solution containing the compound of Example 2 or 4 in tetrahydrofuran (THF) relative to a solution containing, in place of the compound according to the invention, either the pure isomer (D-ribo form) corresponding to the compound of Example 4 (compound A), or the compound of Example 1 of the European patent application published under the No. 0,500,437 filed by the Applicant (compound B).

Assay [2] can be described thus: coefficient of friction of the hair (smoothness), bleached hair, 1% in THF. Particulars: for coefficient of friction of the hair, R → T: root to tip; for coefficient of friction of the hair, T → R: tip to root. As for the experimental part:
(§1) A comparative test was performed on the effects on the smoothness of the hair of a solution containing 1% of the compound of Example 4 in tetrahydrofuran (THF), relative to a control consisting of THF, or to a solution containing, in place of the compound according to the invention, either the pure isomer (D-ribo form) corresponding to the compound of Example 4 (compound A) or the compound of Example 1 of the European patent application published under the No. 0,500,437 owned by the present assignee (compound B).
(§2) This test determines the coefficient of friction of the hair by measuring the force to apply to a control mass in order to make it slide at constant speed on two hairs stretched out in parallel. The measurement is made by sliding the mass from the root to the tip of the hairs (R→T) and vice versa (T→R).

A short description of assay [3]: coefficient of friction of the hair (smoothness), neutral hair, 1% in THF. Particulars: for coefficient of friction of the hair, R → T / coefficient of friction of the hair, T → R: neutral hair, 1% in THF; for coefficient of friction of the hair, R → T: root to tip; for coefficient of friction of the hair, T → R: tip to root. The procedure:
as §1, §2

Consider `CCCCCCCCCCCCCCC(O)C(=O)NC(CO)C(O)C(O)CCCCCCCCCCCCCC` (racemic) [Example 2, 2-N-hydroxyhexadecanoylaminooctadecane-1,3,4-triol(4 isomers)], for which the “I.W.L. 20 H (%)” value in assay [1] (2% in THF) is on record as -31 ± 2%.
For the compound `CCCCCCCCCCCCCCCC(=O)N[C@@H](CO)[C@H](O)[C@H](O)CCCCCCCCCCCCCC` [Compound A, reference compound], the “coefficient of friction of the hair, R → T” value in assay [2] (non-rinsed) is listed as 0.000; in assay [2] (rinsed), 0.191 ± 0.004; in assay [3] (non-rinsed), 0.000; in assay [3] (rinsed), 0.125 ± 0.004. Further, the “coefficient of friction of the hair, T → R” value in assay [2] (non-rinsed) came out at 0.000; in assay [2] (rinsed), 0.264 ± 0.012; in assay [3] (non-rinsed), 0.000; in assay [3] (rinsed) it was 0.214 ± 0.004. Moreover, the “I.W.L. 20 H (%)” value in assay [1] (1% in THF) is on record as 0 ± 2%.
In the case of `CCCCCCCCCCCCCCCC(=O)NC(CO)C(O)C(O)CCCCCCCCCCCCCC` (stereo not drawn) [Example 4, 2-N-hexadecanoylaminooctadecane-1,3,4-triol (8 isomers)], the “coefficient of friction of the hair, R → T” value in assay [2] (non-rinsed) amounted to 0.009 ± 0.006; in assay [2] (rinsed) it was 0.085 ± 0.002; in assay [3] (non-rinsed), 0.089 ± 0.003; in assay [3] (rinsed), 0.095 ± 0.004. The “coefficient of friction of the hair, T → R” value is reported as 0.147 ± 0.006 in assay [2] (non-rinsed), 0.155 ± 0.004 in assay [2] (rinsed), 0.143 ± 0.003 in assay [3] (non-rinsed) and 0.147 ± 0.004 in assay [3] (rinsed). Moreover, the entries for the “I.W.L. 20 H (%)” value in assay [1] (1% in THF) and in assay [1] (1.5% in THF) were -9 ± 2% and -15 ± 2%, respectively. Moreover, the “coefficient of friction (result in words)” value in assay [3] (summary of Table 1, neutral and bleached hair) is “marked decrease in the coefficient of friction”.
